Data on 14 compounds can be found in US20080300276A1, “Heterocyclic Carboxylic Acide Amide Derivatives” (priority 2004, published 2008).

Read-outs that look alike come from different tables or passages of the source. Marks after values point to notes of the source that are not given here.

The target of data set [1] is T1, recombinant NMDA receptors NR1/NR2A (Homo sapiens, UniProt Q05586+Q12879).
T1 construct: expressed in transfected cells
The data set can be described thus: Inhibition of NMDA evoked cytosolic calcium elevations in transfected HEK293 cells. The data set is classed as cell-based. The conditions noted are these: for inhibition at 10 µM / inhibition at 15 µM: HEK293; for inhibition at 10 µM: read-out: NR1-3/NR2A % inhibition at 10 μM. The method, then:
(1997); Neurochemistry International, 43, 19-29. (2003)]. […] Compounds were tested for their inhibitory action on NMDA evoked cytosolic calcium elevations in fluorescent calcium measurements. Studies were performed 48-72 h after addition of the inducing agent. Ketamine ([…] was also present during the induction in order to prevent cytotoxicity.
(§1) Dose-response curves and IC50-values were calculated using data derived from at least three independent experiments. Inhibitory potency of a compound at a single concentration point was expressed as percent inhibition of the NMDA response. Sigmoidal concentration-inhibition curves were fit to the data and IC50 values were determined as the concentration that produces half of the maximal inhibition caused by the compound.

Data set [2] addresses T2, NR2B containing NMDA receptors (Rattus norvegicus, UniProt P35439+Q00960).
T2 construct: primary neocortical cell cultures derived from 17 day old Charles River rat embryos; endogenous in cells; host or cells: primary rat embryonic (E17) neocortical cell culture, 3-7 days in vitro
Nature of the data set: NMDA antagonist potency by fluorimetric intracellular calcium measurement in rat cortical cell culture. The conditions noted are these: fluorimetric method, 40 μM NMDA. It is filed as cell-based. The method, then: Assessment of NMDA Antagonist Potency In Vitro by Measurement of Intracellular Calcium Concentration with a Plate Reader Fluorimeter in Rat Cortical Cell Culture
The intracellular calcium measurements were carried out on primary neocortical cell cultures derived from 17 day old Charles River rat embryos (for the details on the preparation of neocortical cell culture see Johnson, M. I.; Bunge, R. P. (1992): Primary-cell cultures of peripheral and central neurons and glia. In: Protocols for Neural Cell Culture, eds: Fedoroff, S.; Richardson A., The Humana Press Inc., 51-75. After isolation the cells were plated onto standard 96-well microplates and the cultures were maintained in an atmosphere of 95% air-5% CO2 at 37° C. until the calcium measurements.
The cultures were used for the intracellular calcium measurements after 3-7 days in vitro. The cells at this in vitro age are believed to express predominantly NR2B containing NMDA receptors [Mol. Pharmacol. 45, 846-853. (1994)]. Before the measurement the cells were loaded with a fluorescent Ca^2+-sensitive dye, Fluo-4/AM (2 μM). To stop the loading the cells were washed twice with the solution used for the measurement (140 mm NaCl, 5 mM KCl, 2 mM CaCl2, 5 mM HEPES, 5 mM HEPES-Na, 20 mM glucose, 10 mM glycine, pH=7.4). After washing the test compounds were added to the cells in the above solution (90 μl/well). Intracellular calcium measurements were carried out with a plate reader fluorimeter: elevation of Fluo-4-fluorescence and so, intracellular calcium concentration was induced by application of 40 μM NMDA. Inhibitory potency of the test compounds was assessed by measuring the reduction in the calcium elevation in the presence of different concentrations of the compounds.
as §1
(Calcium flux is commonly read through the fluorescence of an indicator in the cells.)

The test system of data set [3] is formalin response (licking/biting of the injected paw). Nature of the data set: Mouse formalin test (second phase). The conditions noted are these: for ED50: Mus musculus, read-out: Formalin ED50. The data set is classed as in vivo. Here is the method:
Injection of diluted formalin into the hind paw of rats or mice is known to elicit a biphasic pain-related behaviour measured as time spent by licking/biting of the injured paw. The second phase is generally defined as pain related events detected in the 15-60 min. time interval ater formalin injection, with peak activity at around 30 min. It is known that NMDA receptors are involved in the second phase of response to formalin injection and this behavioural response is sensitive to blockade of NMDA receptors [Dickenson, A. and Besson J.-M. (Editors): Chapter 1, pp. 6-7: Animal models of Analgesia; and Chapter 8, pp. 180-183: Mechanism of Central Hypersensitivity: Excitatory Amino Acid Mechanisms and Their Control—In Pharmacology of Pain. Springer-Verlag (Berlin) 1997.] Therefore, we used the second phase of formalin test to characterize the efficacy of compounds in vivo. Inhibition of the second phase of response is considered to indicate an analgesic effect against chemically-induced persistent pain [Hunskaar, S., et al.: Formalin Test in Mice, a Useful Technique for Evaluating Mild Analgesics, Journal of Neuroscience Methods, 14 (1985) 69-76.]
Male albino Charles River NMRI mice (20-25 g) were used. Prior to the experiment any solid food was withdrawn for approx. 16 hours but the animals had free access to 20% glucose solution. The animals were allowed 1 hour acclimatization period in a glass cylinder (cc. 15 cm in diameter), then moved to an identical cylinder with a mirror placed behind to facilitate observation. The test substances were suspended in 5% tween-80 (10 ml per kg body weight) and administered orally by gavage 15 min before the formalin injection (20 μl of 1% formalin in 0.9% saline injected subcutaneously into the dorsal surface of the right hindpaw). The time spent by licking and biting of the injected paw was measured from 20 to 25 min. after the formalin injection.

Data set [4] concerns locomotor activity. As to conditions: cited from earlier work; for effect on locomotor activity (in words): animal behavioural studies.
Data set [5] deals with spontaneous locomotor activity. The data set can be described thus: Spontaneous locomotor activity (LMA) in mice. The data set is classed as in vivo, mouse. The conditions noted are these: for locomotor stimulation relative to analgesic dose range (in words): mouse, in vivo. Here is the method: Male NMRI mice weighing 20-22 g were used in the experiments.
Spontaneous locomotor activity was measured in a four-channel activity monitor. The apparatus consisted of acrylic cages. (43 cm×43 cm×32 cm) equipped with 2×16 pairs of photocells along all the bottom axis of the cage. An additional array of photocells (16 pairs) was placed along two opposite sides of the cage at the height of 10 cm in order to detect rearing responses.
Experimental groups consisted of 10 animals. Thirty minutes after the oral administration of the test compound or vehicle (tween-80), the animals were individually placed in one of four cages for one hour. Horizontal and vertical movements were determined as the number of beam interruptions for one hour at 15 min intervals.
Mean ±SE of horizontal activity data of each group was calculated then percentual changes compared to the control (vehicle-treated) group were determined. A compound was considered to cause locomotor stimulation when its effect exceeded 50% increase in beam interruptions. Consequently, doses defined as free of stimulatory action (UM) produced less than 50% increase.

Setting [6] is: read-out: rat cortical cells IC50.
[7] abbreviates: oral, 15 min before formalin, licking time 20 to 25 min.
[8] abbreviates: read-out: Rat cortical cells (NR2B) appr. IC50.

T2 sequence (Q00960 27-1482, other chains not shown): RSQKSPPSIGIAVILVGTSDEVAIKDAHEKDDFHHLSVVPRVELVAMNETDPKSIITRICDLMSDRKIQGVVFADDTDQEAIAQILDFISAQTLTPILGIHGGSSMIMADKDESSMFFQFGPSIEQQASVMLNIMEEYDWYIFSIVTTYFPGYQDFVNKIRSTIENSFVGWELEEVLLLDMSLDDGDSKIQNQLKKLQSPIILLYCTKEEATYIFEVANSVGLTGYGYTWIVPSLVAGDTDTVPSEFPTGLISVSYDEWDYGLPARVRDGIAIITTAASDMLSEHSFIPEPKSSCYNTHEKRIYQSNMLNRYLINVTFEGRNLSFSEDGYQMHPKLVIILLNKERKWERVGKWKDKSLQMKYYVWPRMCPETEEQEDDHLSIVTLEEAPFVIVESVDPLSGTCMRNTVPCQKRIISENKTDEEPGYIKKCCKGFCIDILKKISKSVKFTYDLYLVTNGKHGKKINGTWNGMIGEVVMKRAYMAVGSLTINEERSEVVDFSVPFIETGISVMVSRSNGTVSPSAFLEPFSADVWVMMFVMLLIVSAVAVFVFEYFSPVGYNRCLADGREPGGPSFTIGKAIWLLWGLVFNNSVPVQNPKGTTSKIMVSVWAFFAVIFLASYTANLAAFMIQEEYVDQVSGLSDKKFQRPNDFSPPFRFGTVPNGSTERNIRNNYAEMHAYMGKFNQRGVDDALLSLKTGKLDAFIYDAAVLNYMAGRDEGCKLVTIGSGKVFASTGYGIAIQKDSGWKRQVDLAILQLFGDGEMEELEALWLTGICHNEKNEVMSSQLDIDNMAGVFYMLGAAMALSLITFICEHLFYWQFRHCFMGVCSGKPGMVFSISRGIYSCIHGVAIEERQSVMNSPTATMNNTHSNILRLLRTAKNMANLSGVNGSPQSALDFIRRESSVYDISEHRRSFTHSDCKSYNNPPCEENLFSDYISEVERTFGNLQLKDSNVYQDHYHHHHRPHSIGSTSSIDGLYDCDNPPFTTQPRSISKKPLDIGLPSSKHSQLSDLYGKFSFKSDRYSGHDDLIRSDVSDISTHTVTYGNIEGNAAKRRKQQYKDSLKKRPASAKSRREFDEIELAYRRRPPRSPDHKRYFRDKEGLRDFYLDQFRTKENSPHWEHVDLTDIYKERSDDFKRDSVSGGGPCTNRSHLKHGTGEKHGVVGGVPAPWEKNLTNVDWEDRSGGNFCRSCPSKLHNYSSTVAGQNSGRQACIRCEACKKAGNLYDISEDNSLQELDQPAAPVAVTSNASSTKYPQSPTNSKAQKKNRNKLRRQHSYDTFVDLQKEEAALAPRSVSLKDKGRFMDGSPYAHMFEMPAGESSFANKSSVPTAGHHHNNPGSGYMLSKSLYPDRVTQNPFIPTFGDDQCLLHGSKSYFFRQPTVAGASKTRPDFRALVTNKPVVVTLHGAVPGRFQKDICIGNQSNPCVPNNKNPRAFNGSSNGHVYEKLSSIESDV
T1 sequence (Q12879 23-1464, other chains not shown): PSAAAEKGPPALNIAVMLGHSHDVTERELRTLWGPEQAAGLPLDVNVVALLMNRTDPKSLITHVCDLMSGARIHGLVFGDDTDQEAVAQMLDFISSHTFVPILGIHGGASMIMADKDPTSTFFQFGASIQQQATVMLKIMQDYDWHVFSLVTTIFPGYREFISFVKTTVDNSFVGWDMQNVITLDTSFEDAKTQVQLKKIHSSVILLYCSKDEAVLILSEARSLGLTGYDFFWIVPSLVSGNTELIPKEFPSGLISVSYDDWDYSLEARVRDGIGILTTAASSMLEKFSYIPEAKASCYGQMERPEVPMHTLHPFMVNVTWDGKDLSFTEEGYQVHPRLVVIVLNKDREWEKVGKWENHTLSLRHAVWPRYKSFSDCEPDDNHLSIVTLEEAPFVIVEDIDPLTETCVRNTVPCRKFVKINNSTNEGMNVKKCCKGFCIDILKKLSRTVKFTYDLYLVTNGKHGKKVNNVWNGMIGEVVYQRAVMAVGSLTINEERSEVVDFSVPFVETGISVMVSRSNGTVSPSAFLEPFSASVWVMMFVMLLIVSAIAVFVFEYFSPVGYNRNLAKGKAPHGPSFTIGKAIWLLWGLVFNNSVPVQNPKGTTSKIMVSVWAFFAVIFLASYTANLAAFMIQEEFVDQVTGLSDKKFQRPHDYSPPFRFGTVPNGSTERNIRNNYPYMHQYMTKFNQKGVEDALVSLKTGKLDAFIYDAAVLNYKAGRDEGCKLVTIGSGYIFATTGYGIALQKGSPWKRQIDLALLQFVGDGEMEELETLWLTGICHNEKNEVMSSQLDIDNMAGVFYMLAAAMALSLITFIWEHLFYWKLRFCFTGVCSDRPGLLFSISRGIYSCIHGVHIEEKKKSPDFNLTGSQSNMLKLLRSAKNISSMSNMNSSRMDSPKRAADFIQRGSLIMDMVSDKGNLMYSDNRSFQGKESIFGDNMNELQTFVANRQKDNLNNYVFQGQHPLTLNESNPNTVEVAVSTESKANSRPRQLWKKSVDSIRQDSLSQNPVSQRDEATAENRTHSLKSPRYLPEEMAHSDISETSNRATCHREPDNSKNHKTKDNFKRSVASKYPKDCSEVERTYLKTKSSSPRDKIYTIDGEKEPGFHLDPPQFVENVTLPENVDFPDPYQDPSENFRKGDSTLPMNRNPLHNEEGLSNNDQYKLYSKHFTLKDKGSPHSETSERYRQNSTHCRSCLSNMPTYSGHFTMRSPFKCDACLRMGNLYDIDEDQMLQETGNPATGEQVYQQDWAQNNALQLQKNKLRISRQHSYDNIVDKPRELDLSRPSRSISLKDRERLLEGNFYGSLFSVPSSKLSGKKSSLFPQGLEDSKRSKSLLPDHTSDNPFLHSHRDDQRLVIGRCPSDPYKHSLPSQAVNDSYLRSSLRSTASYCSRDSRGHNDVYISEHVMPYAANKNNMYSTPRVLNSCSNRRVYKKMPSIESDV

As for `C[C@@H](CN1CCC(Cc2ccccc2)CC1)[C@@H](O)c1ccc(O)cc1` (relative stereo) [Ro 25-6981, R-(R*,S*)-1-(4-hydroxyphenyl)-2-methyl-3-[4-(phenylmethyl)piperidin-1-yl]-1-propanol], the “NR1-3/NR2A % inhibition at 10 μM” value in data set [1] turned out to be 1.0%. For the same compound, the IC50 in data set [2] (setting [6]) was determined as 159 nM. Also, in data set [3] (setting [7]), the “Formalin ED50” value is >20* mg/kg. Moreover, the entries for the “effect on locomotor activity (in words)” value in data set [4] and in data set [4] (listed as Ro 256981) were “increase locomotor activity” and “no such effect was observed”, respectively.

In the case of `O=c1[nH]c2ccc([S+]([O-])CCN3CCC(Cc4ccc(F)cc4)CC3)cc2o1` (stereo not drawn) [CI-1041, 6-{2-[4-(4-fluoro-benzyl)-piperidin-1-yl]-ethanesulfinyl}-3H benzooazol-2-one], the inhibition at 10 µM in data set [1] worked out at 21%. Moreover, the LMA % increase in data set [5] (dose 10 mg/kg oral) worked out at 137%. For the same compound, the “locomotor stimulation relative to analgesic dose range (in words)” value in data set [5] is “no separation between the doses causing analgesia and those stimulating locomotor activity”. The ED50 in data set [3] (setting [7]) came to 2.4 mg/kg.

For `C[C@@H]([C@@H](O)c1ccc(O)cc1)N1CCC(O)(c2ccccc2)CC1` [CP-101,606], the “NR1-3/NR2A % inhibition at 10 μM” value in data set [1] worked out at 2.5%. Moreover, in data set [3] (setting [7]), the “Formalin ED50” value is recorded as >20* mg/kg. For the same compound, the “effect on locomotor activity (in words)” value in data set [4] is on record as “no such effect was observed”. Moreover, the “dose up to which locomotor stimulating effect is lacking” value was not above 100 mg/kg in data set [4] (i.p.) and “up to 56 mg/kg” in data set [4] (s.c.).

With `Cc1ccc(CC2(O)CCN(CCOc3ccc(O)cc3)CC2)cc1` [Co-101244, 1-[2-(4-hydroxyphenoxy)ethyl]-4-hydroxy-4-(4-methylbenzyl)piperidine], the inhibition at 10 µM in data set [1] is -8.7%.

With `O=C(CCN1CCC(Cc2ccc(F)cc2)CC1)c1ccc2[nH]c(=O)oc2c1` [EMD 95885], the “NR1-3/NR2A % inhibition at 10 μM” value in data set [1] is on record as 0.1%. In data set [2] (setting [6]), the IC50 is 35 nM.

Take `O=C(c1nc2ccc(O)cc2[nH]1)N1CCC(=Cc2ccccc2)CC1` [Example 1, (4-Benzylidene-piperidine-1-yl)-(6-hydroxy-1H-benzoimidazol-2-yl)-methanone]: the inhibition at 15 µM in data set [1] was 33%. The LMA % increase in data set [5] (dose 15 mg/kg oral) amounted to 27%; in data set [5] (dose 30 mg/kg oral), 63%. Further, in data set [2] (setting [8]), the IC50 was less than 50 nM. For the same compound, the ED50 in data set [3] (setting [7]) was 2.6 mg/kg.

For `Cc1ccc(C=C2CCN(C(=O)c3nc4ccc(O)cc4[nH]3)CC2)cc1` [Example 2, (6-Hydroxy-1H-benzoimidazol-2-yl)-[4-(4-methyl-benzylidene)-piperidine-1-yl]-methanone], in data set [1], the inhibition at 15 µM amounted to 34%. For the same compound, in data set [2] (setting [8]), the half-maximal inhibitory concentration (IC50) was less than 50 nM.

For the compound `O=C(c1nc2ccc(O)cc2[nH]1)N1CCC(=Cc2ccc(F)cc2)CC1` [Example 3, [4-(4-Fluoro-benzylidene)-piperidine-1-yl]-(6-hydroxy-1H-benzoimidazol-2-yl)-methanone], in data set [1], the inhibition at 15 µM is less than 30%. Also, in data set [2] (setting [8]), the 50% inhibitory concentration (IC50) was less than 50 nM.

Turning to `O=C(c1nc2ccc(O)cc2[nH]1)N1CCC(=Cc2ccc(Cl)cc2)CC1` [Example 4, [4-(4-Chloro-benzylidene)-piperidine-1-yl]-(6-hydroxy-1H-benzoimidazol-2-yl)-methanone], the inhibition at 15 µM in data set [1] was less than 30%. In addition, the IC50 in data set [2] (setting [8]) was less than 50 nM.

`COc1ccc(C=C2CCN(C(=O)c3nc4ccc(O)cc4[nH]3)CC2)cc1` [Example 5, (6-Hydroxy-1H-benzoimidazol-2-yl)-[4-(4-methoxy-benzylidene)-piperidine-1-yl]-methanone]: in data set [1], the inhibition at 15 µM was 52%. Further, the IC50 in data set [2] (setting [8]) was less than 50 nM.

Take `O=C(c1cc2ccc(O)cc2[nH]1)N1CCC(=Cc2ccccc2)CC1` [Example 6, (4-Benzylidene-piperidine-1-yl)-(6-hydroxy-1H-indol-2-yl)-methanone]: the inhibition at 15 µM in data set [1] is less than 30%. Also, the LMA % increase in data set [5] (dose 3.75 mg/kg oral) was determined as 0%; in data set [5] (dose 7.5 mg/kg oral) it was 55%; in data set [5] (dose 15 mg/kg oral), 69%. The IC50 in data set [2] (setting [8]) was 50 to 500 nM. Further, the ED50 in data set [3] (setting [7]) amounted to 0.43 mg/kg.

On to `C[C@]12N[C@H](Cc3ccccc31)c1ccccc12` [MK-801, (+)-5-Methyl-10,11-dihydro-5H-dibenzo[a,d]cyclohepten-5,10-imine], for which the results for the LMA % increase in data set [5] (dose 0.1 mg/kg oral) and in data set [5] (dose 0.3 mg/kg oral) were 114% and 217%, respectively. The ED50 in data set [3] (po) amounted to 0.15 mg/kg.

Take `O=C(c1cc2ccc(O)cc2[nH]1)N1CCC(Cc2ccccc2)CC1` [“B”, (4-benzyl-piperidin-1-yl)-(6-hydroxy-1H-indol-2-yl)-methanone]: in data set [5] (dose 1.875 mg/kg oral), the LMA % increase is 90%. Further, the “locomotor stimulation relative to analgesic dose range (in words)” value in data set [5] was “no separation between the doses causing analgesia and those stimulating locomotor activity”. Moreover, the ED50 in data set [3] (setting [7]) stood at 1.7 mg/kg.

“(benzyl-piperidin-1-yl)-(6-hydroxy-1H-benzoimidazol-2-yl)-methanone [“A”]” had an LMA % increase in data set [5] (dose 1.875 mg/kg oral) of 80%. The “locomotor stimulation relative to analgesic dose range (in words)” value in data set [5] was “no separation between the doses causing analgesia and those stimulating locomotor activity”. The “Formalin ED50” value in data set [3] (setting [7]) amounted to 1.6 mg/kg.

One may read the IC50 as the concentration that gives 50% inhibition. Broadly, the ED50 is the dose at which the effect has come halfway, by size or by number of responders.
